Measurements as given in PMC8043168, “Tribolium castaneum defensin 1 kills Moraxella catarrhalisin an in vitro infection model but does not harm commensal bacteria” (Virulence, 2021).
Values after ≈ are worked out from the molar mass of the structure shown. Ends that are not written are not given here.

System: M. catarrhalis
Format: cell-based, Moraxella catarrhalis
Conditions: 12 h
Experimental: Colonies of M. catarrhalis were grown on sheep blood agar plates for 12 h at 37°C and 5% CO2 before transfer to brain heart infusion (BHI) medium (Carl Roth, Karlsruhe, Germany) at an initial concentration of 1.6 × 10^7 cells/ml (OD600 = 0.08) as determined using an Ultraspec 10 cell densitometer (Amersham BioSciences, Little Chalfont, UK). Bacteria were cultivated in a shaking incubator at 37°C until the concentration reached 1.2 × 10^8 cells/ml (OD600 = 0.6) and then diluted to 2 × 10^6 cells/ml (OD600 = 0.011). To establish the optimal concentration ranges for AMP activity, defensin 1 was prepared as a two-fold dilution series from 12.5 µM to 1.56 µM and was added to the bacterial cultures, which were incubated as above for a further 16 h. Untreated cultures were used as controls. The OD600 was measured automatically at 30-min intervals using an Infinite M200 Pro plate reader (Tecan Life Sciences, Männedorf, Switzerland). […] They were cultivated for a further 15 h at 37°C and 5% CO2 in serial dilution before manual counting of the colonies on each plate.
Table S1. Detailed characterization of tested AMPs. M.c. were grown to an Optical Density (OD) 600nm of 0.6 in Brain Heart Infusion (BHI) Medium.
Upon dilution to OD600nm= 0.01, M.c. were incubated with declining amounts of indicated AMPs (25 μM to 0.048 μM at halving intervals) at 37°C with 5% CO2.
OD600nm was measured at 30 min intervals to establish the minimal inhibitory concentration (MIC). pI = isoelectric point, MW = molecular weight in kiloDalton.
MIC AMP name AMP class Organism Amino Acid Sequence pIMWPurity Retention time [min] modification
0.195 µM Cecropin A α-helical Hyalophora cecropia […] 10.75 4.00 91.06 7.30 n-term. amidation
0.39 µM Sarcotoxin IA α-helical Sarcophaga peregrina […] 11.07 4.16 91.37 9.37 n-term. amidation
~ 25µM Stomoxyn α-helical Stomoxys calcitrans […] 11.26 4.40 95.34 10.08 n-term. amidation
~ 25µM Spinigerin linear Pseudacanthotermes spiniger […] 11.07 3.00 96.23 12.45 none
>25µM Apidaecin Ia proline-rich Apis mellifera GNNRPVYIPQPRPPHPRI 11.71 2.11 92.98 16.91 none
>25µM Drosocin proline-rich Drosophila melanogaster GKPRPYSPRPTSHPRPIRV 12.01 2.20 92.86 11.65 none
>25µM Pyrrhocoricin proline-rich Pyrrhocoris apterus […] 10.27 2.34 93.17 11.38 none
>25 µM Metalnikowin-1 proline-rich Palomena prasina […] 9.98 1.84 92.85 13.36 none
>25 µM Metalnikowin-2A proline-rich Palomena prasina […] 9.98 1.84 92.39 10.85 none
>25 µM Metchnikowin-1 proline-rich Drosophila melanogaster […] 10.74 3.03 99.06 11.50 none
>25 µM Metchnikowin-2 proline-rich Drolophila melanogaster […] 11.54 3.04 97.16 11.46 none
12.5 µM Defensin 1 disulfide stabilized Tribolium castaneum […] 9.7 4.83 90.53 18.41 none
~ 25 µM Cecropin-like α-helical Lucilia sericata[…] 10.35 6.66 90.28 12.01 none
0.195 µM Cecropin α-helical Galleria mellonella […] 10.21 4.21 93.61 12.33 n-term. amidation
0.37 µM Cecropin α-helical Lucilia sericata […] 10.56 4.26 94.31 10.83 n-term. amidation
12.5 µM Stomoxyn α-helical Lucilia sericata […] 10.73 4.38 90.37 13.35n-term. amidation n-term.
1.56 µM Cecropin(Sarcotoxin) α-helical Eristalis tenax […] 10.56 4.14 90.80 9.76 none

MIC (minimal inhibitory concentration) | Compound
12.5 µM | GFRKRFNKLVKKVKHTIKETANVSKDVAIVAGSGVAVGAAMG-NH2 [Stomoxyn (Lucilia sericata)]
1.56 µM | GGLKKLGKKLEGAGKRVFNAAEKALPVVAGAKALRK [Cecropin A (Aedes aegypti)]
> 25 µM | GKPRPYSPRPTSHPRPIRV [Drosocin]
> 25 µM | GRPNPVNNKPTPHPRL [Formaecin-1]
> 25 µM | HRHQGPIFDTRPSPFNPNQPRPGPIY [Metchnikowin-1]
> 25 µM | HRRQGPIFDTRPSPFNPNQPRPGPIY [Metchnikowin-2]
~ 25 µM | HVDKKVADKVLLLKQLRIMRLLTRL [Spinigerin]
0.195 µM | KWKIFKKIEKAGRNIRDGIIKAGPAVSVVGEAATIYKTG-NH2 [Cecropin (Galleria mellonella)]
0.195 µM | KWKLFKKIEKVGQNIRDGIIKAGPAVAVVGQATQIAK-NH2 [Cecropin A (Hyalophora cecropia)]
> 25 µM | VDKPDYRPRPRPPNM [Metalnikowin-1]

Continued, compound first:

Compound | MIC (minimal inhibitory concentration)
DLRFLYPRGKLPVPTPPPFNPKPIYIDMGNRY [Lebocin-1] | > 25 µM
FVPYNPPRPGQSKPFPSFPGHGPFNPKIQWPYPLPNPGH [Abaecin] | > 25 µM
GNNRPVYIPQPRPPHPRI [Apidaecin Ia] | > 25 µM
VDKPDYRPRPWPRPN [Metalnikowin-2A] | > 25 µM

Same assay, conditions: M. catarrhalis grown to OD600 0.6 in BHI, diluted to OD600 0.01; AMP 25 µM to 0.048 µM at halving intervals; 37°C, 5% CO2; OD600 every 30 min

Compound | MIC (minimal inhibitory concentration)
CC[C@H](C)[C@H](NC(=O)CNC(=O)[C@H](CC(C)C)NC(=O)CNC(=O)[C@H](CCC(N)=O)NC(=O)[C@@H](NC(=O)[C@@H](NC(=O)[C@H](C)NC(=O)[C@H](CC(=O)O)NC(=O)[C@H](CCCNC(=N)N)NC(=O)[C@@H](NC(=O)[C@H](Cc1c[nH]cn1)NC(=O)[C@H](CCC(N)=O)NC(=O)CNC(=O)[C@@H](NC(=O)[C@H](CCCNC(=N)N)NC(=O)[C@H](CCC(=O)O)NC(=O)[C@@H](NC(=O)[C@H](CCCCN)NC(=O)[C@H](CCCCN)NC(=O)CNC(=O)[C@@H](NC(=O)[C@H](CCCCN)NC(=O)[C@H](CCCCN)NC(=O)[C@H](CC(C)C)NC(=O)[C@H](Cc1c[nH]c2ccccc12)NC(=O)CN)[C@@H](C)CC)[C@@H](C)CC)C(C)C)[C@@H](C)O)[C@@H](C)O)[C@@H](C)CC)C(=O)N[C@@H](C)C(=O)N[C@@H](CCC(N)=O)C(=O)N[C@@H](CCC(N)=O)C(=O)N[C@@H](C)C(=O)N[C@@H](C)C(=O)N[C@@H](CC(N)=O)C(=O)N[C@H](C(=O)N[C@@H](C)C(=O)N[C@@H](C)C(=O)N[C@H](C(=O)N[C@@H](C)C(=O)N[C@@H](CCCNC(=N)N)C(N)=O)[C@@H](C)O)C(C)C [Sarcotoxin IA] | 0.39 µM (≈ 1.62 µg/mL)
GFLKKIGKKLEGAVQRTRDATIQTIAVAQAAANVAATAKQ [Cecropin(Sarcotoxin)] | 1.56 µM
GWLKKIGKKIERVGQHTRDATIQTIGVAQQAANVAATLKG-NH2 [Sarcotoxin 1 C] | 0.37 µM
RGFRKHFNKLVKKVKHTISETAHVAKDTAVIAGSGAAVVAAT-NH2 [Stomoxyn (Stomoxys calcitrans)] | ~ 25 µM
SIGSAFKKALPVAKKIGKAALPIAKAALP [Ceratotoxin] | > 25 µM
VDKGSYLPRPTPPRPIYNRN [Pyrrhocoricin] | > 25 µM

System: not given
Conditions: cited from earlier work

Compound | cardiotoxicity
GWLKKIGKKIERVGQHTRDATIQTIGVAQQAANVAATLKG-NH2 [Sarcotoxin 1 C] | no cytotoxicity or cardiotoxicity

System: not given
Conditions: cited from earlier work
Remark: another data set of the same source
Description: We furthermore tested the effect of defensin 1 and sarcotoxin 1 C on the commensals E. faecalis and E. coli. Selectivity of AMPs may provide an important therapeutic advantage over broad-spectrum antibiotics because AMPs targeting pathogens but not commensals would avoid the common side effects of antibiotic therapy. […] Sarcotoxin 1 C was previously shown to inhibit 90% of clinical multidrug-resistant isolates of Ent ...

Compound | broad-panel off-target profile | cytotoxicity | in vitro therapeutic index
GWLKKIGKKIERVGQHTRDATIQTIGVAQQAANVAATLKG-NH2 [Sarcotoxin 1 C] | inconspicuous | no cytotoxicity | good

System: mice
Conditions: dose of 10 mg/kg; cited from earlier work

Compound | acute toxicity in mice
GWLKKIGKKIERVGQHTRDATIQTIGVAQQAANVAATLKG-NH2 [Sarcotoxin 1 C] | no acute toxicity
